Experiments:
Thromboxane-A synthase = target: T1, Thromboxane-A synthase (Homo sapiens, UniProt P24557); assay: biochemical; format: tissue-based, Platelet; conditions: platelet;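 further: enzyme inhibition assay with PGH2 supplied as substrate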
T1 sequence (P24557 whole entry): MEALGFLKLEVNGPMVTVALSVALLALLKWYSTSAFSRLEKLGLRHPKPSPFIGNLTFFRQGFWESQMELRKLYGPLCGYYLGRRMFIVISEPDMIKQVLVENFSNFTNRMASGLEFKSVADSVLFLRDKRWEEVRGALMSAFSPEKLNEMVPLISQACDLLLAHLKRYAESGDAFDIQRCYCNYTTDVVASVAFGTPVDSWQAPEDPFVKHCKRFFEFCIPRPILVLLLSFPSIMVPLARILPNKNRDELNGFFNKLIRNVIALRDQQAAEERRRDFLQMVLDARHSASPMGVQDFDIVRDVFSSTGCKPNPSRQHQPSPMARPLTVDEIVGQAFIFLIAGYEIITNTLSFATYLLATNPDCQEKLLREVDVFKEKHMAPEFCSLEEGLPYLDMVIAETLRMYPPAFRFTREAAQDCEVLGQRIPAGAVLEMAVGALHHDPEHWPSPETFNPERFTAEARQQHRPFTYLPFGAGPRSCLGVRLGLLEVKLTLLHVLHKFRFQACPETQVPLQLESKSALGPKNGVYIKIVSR

Glycine receptor = Glycine receptor (Rattus norvegicus, UniProt P22771+P24524+P07727+P20781); format: cell membranes, Wistar, Spinal cord, Membrane
[1] = target: T2, 3-hydroxy-3-methylglutaryl-coenzyme A reductase (Homo sapiens, UniProt P04035); design: species or system Escherichia coli;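 further: enzyme inhibition assay of HMG-CoA reductase using radiolabeled [14C]HMG-CoA as substrate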
T2 sequence (P04035 whole entry): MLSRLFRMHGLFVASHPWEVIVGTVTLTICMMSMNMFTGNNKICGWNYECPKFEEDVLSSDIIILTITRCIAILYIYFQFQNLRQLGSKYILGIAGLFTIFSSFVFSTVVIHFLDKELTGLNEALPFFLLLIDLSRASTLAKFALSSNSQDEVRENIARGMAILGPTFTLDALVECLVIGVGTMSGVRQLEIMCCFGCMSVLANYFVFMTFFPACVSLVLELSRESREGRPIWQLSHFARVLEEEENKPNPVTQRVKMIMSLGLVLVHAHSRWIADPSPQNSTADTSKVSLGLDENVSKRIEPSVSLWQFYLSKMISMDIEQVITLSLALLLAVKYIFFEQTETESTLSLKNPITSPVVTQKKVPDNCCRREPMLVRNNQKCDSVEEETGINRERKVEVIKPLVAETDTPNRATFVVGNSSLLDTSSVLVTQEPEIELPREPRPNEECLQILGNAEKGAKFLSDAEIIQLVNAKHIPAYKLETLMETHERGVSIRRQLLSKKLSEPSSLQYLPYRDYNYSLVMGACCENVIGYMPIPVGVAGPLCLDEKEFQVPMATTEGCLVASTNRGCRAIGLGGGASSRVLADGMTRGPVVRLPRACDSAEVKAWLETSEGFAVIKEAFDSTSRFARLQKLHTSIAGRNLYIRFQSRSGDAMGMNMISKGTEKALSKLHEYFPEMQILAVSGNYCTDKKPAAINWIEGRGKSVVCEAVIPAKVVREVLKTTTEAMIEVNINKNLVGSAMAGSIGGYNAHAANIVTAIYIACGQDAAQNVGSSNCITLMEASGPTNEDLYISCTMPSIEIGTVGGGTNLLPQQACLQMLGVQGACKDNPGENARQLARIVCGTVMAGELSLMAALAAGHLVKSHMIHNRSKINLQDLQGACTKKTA

Leukotriene C4 synthase = target: T3, Leukotriene C4 synthase (Cavia porcellus, UniProt A6XA80); format: tissue-based, Lung;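 further: enzyme inhibition assay of leukotriene C4 synthase, using LTA4 as the substrate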
T3 sequence (A6XA80 whole entry): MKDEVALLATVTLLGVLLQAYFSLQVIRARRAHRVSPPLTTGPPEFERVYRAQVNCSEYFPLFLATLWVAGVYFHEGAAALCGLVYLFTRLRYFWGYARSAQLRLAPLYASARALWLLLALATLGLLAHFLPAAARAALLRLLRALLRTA

[2] = target: T4, Neuropeptide Y receptor type 1 (Homo sapiens, UniProt P25929); format: cell membranes, Membrane; conditions: sk-n-mc
T4 sequence (P25929 whole entry): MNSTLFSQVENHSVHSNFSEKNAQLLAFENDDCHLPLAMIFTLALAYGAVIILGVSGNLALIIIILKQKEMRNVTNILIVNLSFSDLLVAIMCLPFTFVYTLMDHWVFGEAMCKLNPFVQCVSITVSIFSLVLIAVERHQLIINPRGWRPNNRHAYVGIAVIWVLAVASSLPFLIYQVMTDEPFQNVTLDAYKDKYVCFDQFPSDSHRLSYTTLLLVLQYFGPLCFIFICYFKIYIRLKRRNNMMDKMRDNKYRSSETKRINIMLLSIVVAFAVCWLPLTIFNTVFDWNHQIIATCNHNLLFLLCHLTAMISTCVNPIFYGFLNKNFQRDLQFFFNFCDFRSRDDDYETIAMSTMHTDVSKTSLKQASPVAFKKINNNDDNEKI

Cytochrome P450 1A2 = target: T5, Cytochrome P450 1A2 (Homo sapiens, UniProt P05177); conditions: bti-tn-5b1-4
T5 sequence (P05177 whole entry): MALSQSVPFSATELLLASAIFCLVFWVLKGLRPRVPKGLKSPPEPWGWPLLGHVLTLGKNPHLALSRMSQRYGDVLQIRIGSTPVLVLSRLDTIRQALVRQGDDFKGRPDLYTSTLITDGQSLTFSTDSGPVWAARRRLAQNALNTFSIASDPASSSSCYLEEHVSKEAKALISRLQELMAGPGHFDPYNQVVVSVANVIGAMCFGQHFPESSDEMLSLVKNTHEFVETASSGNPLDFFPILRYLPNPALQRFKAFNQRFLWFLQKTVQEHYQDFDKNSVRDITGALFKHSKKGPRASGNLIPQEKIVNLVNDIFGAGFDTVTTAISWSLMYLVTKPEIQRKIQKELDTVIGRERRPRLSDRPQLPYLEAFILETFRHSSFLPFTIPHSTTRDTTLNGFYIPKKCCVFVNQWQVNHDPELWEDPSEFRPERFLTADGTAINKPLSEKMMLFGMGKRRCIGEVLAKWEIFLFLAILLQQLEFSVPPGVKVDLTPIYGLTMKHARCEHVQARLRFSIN
Further: in other assays of this panel Not Active means under 50% inhibition at 10 µM.

CN1C(=O)COc2c(C(=O)NC3CN4CCC3CC4)cc(Cl)cc21 (stereo not given) [AZASETRON]
Not Active: IC50 (Thromboxane-A synthase) | IC50 (Glycine receptor) | IC50 [1] | IC50 (Leukotriene C4 synthase) | IC50 [2] | IC50 (Cytochrome P450 1A2) | Ki (Cytochrome P450 1A2)

C[C@H]1C[C@H]2[C@@H]3CCC4=CC(=O)C=C[C@]4(C)[C@@]3(Cl)[C@@H](O)C[C@]2(C)[C@@]1(O)C(=O)CO [BECLOMETHASONE]
Not Active: IC50 (Thromboxane-A synthase) | IC50 (Glycine receptor) | IC50 [1] | IC50 (Leukotriene C4 synthase) | IC50 [2] | IC50 (Cytochrome P450 1A2) | Ki (Cytochrome P450 1A2)

CCOC(=O)[C@H](CCc1ccccc1)N[C@H]1CCc2ccccc2N(CC(=O)O)C1=O [BENAZEPRIL]
Not Active: IC50 (Thromboxane-A synthase) | IC50 (Glycine receptor) | IC50 [1] | IC50 (Leukotriene C4 synthase) | IC50 [2] | IC50 (Cytochrome P450 1A2) | Ki (Cytochrome P450 1A2)

Nc1c(CC(=O)O)cccc1C(=O)c1ccc(Br)cc1 [BROMFENAC]
Not Active: IC50 (Thromboxane-A synthase) | IC50 (Glycine receptor) | IC50 [1] | IC50 (Leukotriene C4 synthase) | IC50 [2] | IC50 (Cytochrome P450 1A2) | Ki (Cytochrome P450 1A2)

CCCCN1CCCCC1C(=O)Nc1c(C)cccc1C.Cl (stereo not given) [BUPIVACAINE HYDROCHLORIDE]
Not Active: IC50 (Thromboxane-A synthase) | IC50 (Glycine receptor) | IC50 [1] | IC50 (Leukotriene C4 synthase) | IC50 [2] | IC50 (Cytochrome P450 1A2) | Ki (Cytochrome P450 1A2)

O=C1CC2(CCCC2)CC(=O)N1CCCCN1CCN(c2ncccn2)CC1 [BUSPIRONE]
Not Active: IC50 (Thromboxane-A synthase) | IC50 (Glycine receptor) | IC50 [1] | IC50 (Leukotriene C4 synthase) | IC50 [2] | IC50 (Cytochrome P450 1A2) | Ki (Cytochrome P450 1A2)

C[C@@]12C(=O)OC(=O)[C@]1(C)[C@H]1CC[C@@H]2O1 [CANTHARIDIN]
Not Active: IC50 (Thromboxane-A synthase) | IC50 (Glycine receptor) | IC50 [1] | IC50 (Leukotriene C4 synthase) | IC50 [2] | IC50 (Cytochrome P450 1A2) | Ki (Cytochrome P450 1A2)

ClC(Cl)Cl [CHLOROFORM]
Not Active: IC50 (Thromboxane-A synthase) | IC50 (Glycine receptor) | IC50 [1] | IC50 (Leukotriene C4 synthase) | IC50 [2] | IC50 (Cytochrome P450 1A2) | Ki (Cytochrome P450 1A2)

C=C1CC[C@H](O)C/C1=C/C=C1\CCC[C@]2(C)[C@@H]([C@H](C)CCCC(C)C)CC[C@@H]12 [CHOLECALCIFEROL]
Not Active: IC50 (Thromboxane-A synthase) | IC50 (Glycine receptor) | IC50 [1] | IC50 (Leukotriene C4 synthase) | IC50 [2] | IC50 (Cytochrome P450 1A2) | Ki (Cytochrome P450 1A2)

C[N+](C)(C)CCO.[Cl-] [CHOLINE CHLORIDE]
Not Active: IC50 (Thromboxane-A synthase) | IC50 (Glycine receptor) | IC50 [1] | IC50 (Leukotriene C4 synthase) | IC50 [2] | IC50 (Cytochrome P450 1A2) | Ki (Cytochrome P450 1A2)

CC(=O)OCC(=O)[C@@]1(O)CC[C@H]2[C@@H]3CCC4=CC(=O)CC[C@]4(C)[C@H]3C(=O)C[C@@]21C [CORTISONE ACETATE]
Not Active: IC50 (Thromboxane-A synthase) | IC50 (Glycine receptor) | IC50 [1] | IC50 (Leukotriene C4 synthase) | IC50 [2] | IC50 (Cytochrome P450 1A2) | Ki (Cytochrome P450 1A2)

O=c1ccc2ccccc2o1 [COUMARIN]
Not Active: IC50 (Thromboxane-A synthase) | IC50 (Glycine receptor) | IC50 [1] | IC50 (Leukotriene C4 synthase) | IC50 [2] | IC50 (Cytochrome P450 1A2) | Ki (Cytochrome P450 1A2)

CN(C)/N=N/c1[nH]cnc1C(N)=O [DACARBAZINE]
Not Active: IC50 (Thromboxane-A synthase) | IC50 (Glycine receptor) | IC50 [1] | IC50 (Leukotriene C4 synthase) | IC50 [2] | IC50 (Cytochrome P450 1A2) | Ki (Cytochrome P450 1A2)

CC(=O)Nc1c(I)c(NC(C)=O)c(I)c(C(=O)O)c1I [DIATRIZOIC ACID]
Not Active: IC50 (Thromboxane-A synthase) | IC50 (Glycine receptor) | IC50 [1] | IC50 (Leukotriene C4 synthase) | IC50 [2] | IC50 (Cytochrome P450 1A2) | Ki (Cytochrome P450 1A2)

COP(=O)(OC)OC=C(Cl)Cl [DICHLORVOS]
Not Active: IC50 (Thromboxane-A synthase) | IC50 (Glycine receptor) | IC50 [1] | IC50 (Leukotriene C4 synthase) | IC50 [2] | IC50 (Cytochrome P450 1A2) | Ki (Cytochrome P450 1A2)

— ChEMBL document CHEMBL1909046, “DrugMatrix in vitro pharmacology data”
